ChEMBL document CHEMBL1201862, “PubChem BioAssay data set” (2004)
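Tested at 5 concentrations; 48 h exposure; 96-well plates; endpoints linearly interpolated, else capped at highest concentration. GI50 marks 50% less growth.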 Calls of active or inactive are those of the source. Rule as the data show it: active = GI50 up to about 1.1 µM and inactive = higher.

Columns and labels:
Test in all cases: DTP human tumour cell line panel, 48 h
NCI-H226 = tested on: NCI-H226
UACC-62 = tested on: UACC-62
OVCAR-3 = tested on: OVCAR-3
HCT-15 = tested on: HCT-15
LXFL 529 = tested on: LXFL 529
NCI-H460 = tested on: NCI-H460
NCI-H522 = tested on: NCI-H522
HOP-18 = tested on: HOP-18
KM12 = tested on: KM12
SW-620 = tested on: SW-620
KM-20L2 = tested on: KM-20L2
EKVX = tested on: EKVX
LOX IMVI = tested on: LOX IMVI
DMS-114 = tested on: DMS-114
HOP-92 = tested on: HOP-92
RXF 631 = tested on: RXF 631
M14 = tested on: M14
MOLT-4 = tested on: MOLT-4
SK-MEL-5 = tested on: SK-MEL-5
CAKI-1 = tested on: CAKI-1
M19-MEL = tested on: M19-MEL
SNB-78 = tested on: SNB-78
HL-60 = tested on: HL-60
HCC 2998 = tested on: HCC 2998
HCT-116 = tested on: HCT-116
RXF 393 = tested on: RXF 393
SF-539 = tested on: SF-539
TK-10 = tested on: TK-10
CCRF-CEM = tested on: CCRF-CEM
UO-31 = tested on: UO-31
SK-MEL-2 = tested on: SK-MEL-2
SR = tested on: SR
A549 = tested on: A549
COLO 205 = tested on: COLO 205
SK-OV-3 = tested on: SK-OV-3
RPMI-8226 = tested on: RPMI-8226
K562 = tested on: K562
SN12C = tested on: SN12C
Malme-3M = tested on: Malme-3M
SNB-19 = tested on: SNB-19
OVCAR-5 = tested on: OVCAR-5
DLD-1 = tested on: DLD-1
OVCAR-8 = tested on: OVCAR-8
U-251 = tested on: U-251
786-0 = tested on: 786-0
SF-295 = tested on: SF-295
IGROV-1 = tested on: IGROV-1
A498 = tested on: A498
HOP-62 = tested on: HOP-62
NCI-H23 = tested on: NCI-H23
SF-268 = tested on: SF-268
UACC-257 = tested on: UACC-257
DMS-273 = tested on: DMS-273
SK-MEL-28 = tested on: SK-MEL-28
HT-29 = tested on: HT-29

## CC(=O)NNc1nc(C)c(C(=O)/C=C/c2cccc([N+](=O)[O-])c2)s1
NCI-H226
  GI50: > 100 µM (inactive)
UACC-62
  GI50: > 100 µM (inactive)
OVCAR-3
  GI50: > 100 µM (inactive)
HCT-15
  GI50: > 100 µM
LXFL 529
  GI50: > 100 µM (inactive)
NCI-H460
  GI50: > 100 µM (inactive)
NCI-H522
  GI50: > 100 µM (inactive)
HOP-18
  GI50: > 100 µM (inactive)
KM12
  GI50: > 100 µM (inactive)
SW-620
  GI50: > 100 µM (inactive)
KM-20L2
  GI50: > 100 µM (inactive)
EKVX
  GI50: 19.5 µM (inactive)
LOX IMVI
  GI50: > 100 µM (inactive)
DMS-114
  GI50: > 100 µM (inactive)
HOP-92
  GI50: > 100 µM (inactive)
RXF 631
  GI50: > 100 µM (inactive)
M14
  GI50: > 100 µM (inactive)
MOLT-4
  GI50: > 100 µM (inactive)
SK-MEL-5
  GI50: > 100 µM (inactive)
CAKI-1
  GI50: > 100 µM (inactive)
M19-MEL
  GI50: > 100 µM (inactive)
SNB-78
  GI50: > 100 µM (inactive)
HL-60
  GI50: > 100 µM (inactive)
HCC 2998
  GI50: > 100 µM (inactive)
HCT-116
  GI50: > 100 µM (inactive)
RXF 393
  GI50: > 100 µM (inactive)
SF-539
  GI50: > 100 µM (inactive)
TK-10
  GI50: > 100 µM (inactive)
CCRF-CEM
  GI50: > 100 µM (inactive)
UO-31
  GI50: > 100 µM (inactive)
SK-MEL-2
  GI50: > 100 µM (inactive)
SR
  GI50: > 100 µM (inactive)
A549
  GI50: > 100 µM (inactive)
COLO 205
  GI50: > 100 µM (inactive)
SK-OV-3
  GI50: > 100 µM (inactive)
RPMI-8226
  GI50: > 100 µM (inactive)
K562
  GI50: > 100 µM (inactive)
SN12C
  GI50: > 100 µM (inactive)
Malme-3M
  GI50: > 100 µM (inactive)
SNB-19
  GI50: > 100 µM (inactive)
OVCAR-5
  GI50: > 100 µM (inactive)
DLD-1
  GI50: > 100 µM (inactive)
OVCAR-8
  GI50: > 100 µM (inactive)
U-251
  GI50: > 100 µM (inactive)
786-0
  GI50: > 100 µM (inactive)
SF-295
  GI50: > 100 µM (inactive)
IGROV-1
  GI50: > 100 µM (inactive)
A498
  GI50: > 100 µM (inactive)
HOP-62
  GI50: > 100 µM (inactive)
NCI-H23
  GI50: > 100 µM (inactive)
SF-268
  GI50: > 100 µM (inactive)
UACC-257
  GI50: > 100 µM (inactive)
DMS-273
  GI50: > 100 µM (inactive)
SK-MEL-28
  GI50: > 100 µM (inactive)
HT-29
  GI50: > 100 µM (inactive)
